Laboratory results: publication PMC3898886, “P-glycoprotein (Mdr1a/1b) and breast cancer resistance protein (Bcrp) decrease the uptake of hydrophobic alkyl triphenylphosphonium cations by the brain” (Biochimica et Biophysica Acta, 2013)

Key:
[1] = tested on: P-gp isoforms Mdr1a and Mdr1b; set-up: method as in PMID 19722701; details: cited from earlier work
P-gp = assay: uptake of [3H] MitoF into tissues after pretreatment with CsA; assay type: in vivo, female C57/BL6 mice; details: tissues 60 min later
Method: To assess the effects of co-administration of cyclosporin A (CsA) on the uptake of MitoF, female C57/BL6 mice (~ 20 g) were used. The mice were injected with CsA (Sandimmun, Novartis supplied as 50 mg/mL solution which was diluted 1:4 in sterile PBS and injected 100 μL at 50 mg/kg) IV by tail vein injection, or with PBS carrier, followed 30 min later with [^3H] MitoF (100 nmol) by IV tail vein injection and 60 min later the mice were killed and the tissues harvested. All procedures were approved by the University of Otago animal ethics committee.

[2] = tested on: P-glycoprotein (Mdr1a/1b) and breast cancer resistance protein (Bcrp); assay: tissue and blood content of [3H] TPP compound after IV injection, transgenic mice lacking ABC transporters, compared with wild type; details: for uptake into the brain, transgenic compared to wild type mice: radioactivity in brain over 20 h; for ratio of compound in the brain relative to the blood, transgenic versus WT: 5 h after IV injection of 100 nmol; for AUC for accumulation into the brain: transgenic mice
Method: (§1) For injection the mice were placed in a restraining tube and injected by the tail vein with 100 nmol [^3H] compound (~ 400–500 nCi) in 100 μL sterile phosphate buffered saline (PBS) supplemented with 10% DMSO. A sample of the [^3H] compound solution injected was retained to calculate the specific activity, which was subsequently used to determine the tissue contents of the compound. Two WT mice and two transgenic mice were injected for each compound for each time point. […] At the indicated times after injection, the mice were killed by cervical dislocation and a blood sample of ~ 100–200 μL was obtained by cardiac puncture. The organs were then removed, cleared of blood by cutting into pieces and rinsing with saline, transferred to pre-chilled Eppendorf tubes on ice, weighed and stored at − 80 °C until processing. The tissues taken were: heart, kidneys, liver, brain, skeletal muscle (gastrocnemius) and white adipose tissue (subcutaneous). […] The mice were monitored after injection to ensure no pathology or distress.
Tissues were thawed at room temperature and transferred to 50 mL Falcon tubes. Ice-cold methanol (~ 4 °C; 1 mL/100 mg tissue wet weight) was added to the tissue and the tissue homogenised using an Ultra Turrax homogeniser (2 × 30 s on ice). The homogenate was transferred in 1 mL batches to 1.5 mL Eppendorf tubes and centrifuged (10,000 ×g for 8 min at 4 °C). The methanol extract was decanted into a 20 mL glass scintillation vial (Wheaton) and the methanol evaporated under a stream of N2. Further ice-cold methanol (1 mL/100 mg) was added to the tissue homogenate pellets, vortexed for 1 min, centrifuged as above and the methanol extract decanted to a fresh 20 mL glass scintillation vial and evaporated. This procedure was repeated 3 more times to give 5 extracts per tissue sample. […] Scintillant (OptiPhase HiSafe II; 10 mL) was added to each vial, [^3H] DPM content measured in a scintillation counter (LKB Wallac 1217 Rackbeta) using appropriate quench corrections and the total amount of radioactivity per sample calculated. The specific activity of the injected [^3H] compound was then used to calculate the tissue content as mol compound/g wet weight tissue.

[3] = published value; cited from earlier work
[4] = tissue and blood content of [3H] TPP compound after IV tail vein injection, wild type mice; details: 100 nmol IV; for uptake by adipose tissue / uptake by the heart / uptake by the kidneys: wild type and transgenic mice; for AUC for accumulation into the brain: WT mice
Method: as §1
Tissues were thawed at room temperature and transferred to 50 mL Falcon tubes. Ice-cold methanol (~ 4 °C; 1 mL/100 mg tissue wet weight) was added to the tissue and the tissue homogenised using an Ultra Turrax homogeniser (2 × 30 s on ice). The homogenate was transferred in 1 mL batches to 1.5 mL Eppendorf tubes and centrifuged (10,000 ×g for 8 min at 4 °C). The methanol extract was decanted into a 20 mL glass scintillation vial (Wheaton) and the methanol evaporated under a stream of N2. Further ice-cold methanol (1 mL/100 mg) was added to the tissue homogenate pellets, vortexed for 1 min, centrifuged as above and the methanol extract decanted to a fresh 20 mL glass scintillation vial and evaporated. This procedure was repeated 3 more times to give 5 extracts per tissue sample. […] Scintillant (OptiPhase HiSafe II; 10 mL) was added to each vial, [^3H] […] The specific activity of the injected [^3H] compound was then used to calculate the tissue content as mol compound/g wet weight tissue.

[5] = cited from earlier work
[6] = monitoring of mice after IV injection for pathology or distress; assay type: in vivo; details: 100 nmol IV
Method: as §1

[7] = 100 nmol IV, 1 to 48 h post injection
[8] = 100 nmol IV, 1 to 20 h post injection

Row | SMILES | uptake in the liver, transgenic mice compared to controls ([2]; 100 nmol IV) | uptake into heart, kidney and white adipose tissue, transgenic versus wild type mice ([2]; 100 nmol IV) | uptake into the brain, transgenic compared to wild type mice ([2]; 100 nmol IV) | ratio of compound in the brain relative to the blood, transgenic versus WT [2] | octan-1-ol/PBS partition coefficient [3] | uptake by adipose tissue [4] | uptake by the heart [4] | uptake by the kidneys [4] | other results
1 | c1ccc([P+](c2ccccc2)(c2ccccc2)c2ccccc2)cc1 [tetraphenylphosphonium cation, tetraphenylphosphonium] |  |  |  |  |  |  |  |  | effect of ablation of Mdr1a and Mdr1b on uptake across the BBB [1]: did not increase
2 | FCCCCCCCCCCC[P+](c1ccccc1)(c1ccccc1)c1ccccc1 [MitoF, Fluoroundecyltriphenylphosphonium] | increase in the uptake | no difference | greater uptake into the brain | increased uptake | 740 ± 100 | lower uptake | less extensive uptake | extensive uptake | effect of CsA on uptake into the brain, muscle, fat, heart or kidney (P-gp; CsA 50 mg/kg IV 30 min before 100 nmol [3H] MitoF IV): did not affect; effect of CsA on uptake into the liver (P-gp; CsA 50 mg/kg IV 30 min before 100 nmol [3H] compound IV): increase uptake; increase of brain AUC, transgenic versus WT [2, 7]: ~ 9 fold; AUC for accumulation into the brain [2, 7]: 16.6 nmol·h/g wet weight; AUC for accumulation into the brain ([4]; 1 to 48 h post injection): 1.9 nmol·h/g wet weight
3 | C[P+](c1ccccc1)(c1ccccc1)c1ccccc1 [TPMP, methyltriphenylphosphonium, reference compound] | not |  | no difference |  |  | lower uptake | less extensive uptake |  | change of brain AUC, transgenic versus WT ([2]; 100 nmol IV, 1 to 5 h post injection): unchanged; AUC for accumulation into the brain ([4]; 1 to 5 h post injection): 0.87 nmol·h/g wet weight
4 | COC1=C(OC)C(=O)C(CCCCCCCCCC[P+](c2ccccc2)(c2ccccc2)c2ccccc2)=C(C)C1=O [MitoQ, mitoquinone] | increase in the uptake | no difference | greater uptake into the brain | increased uptake | 2760 | lower uptake | less extensive uptake | extensive uptake | effect of CsA on biliary excretion [5]: inhibited; proportion of an IV dose excreted by the biliary pathway ([5]; within 4 h): 25%; toxicity of the injected amount [6]: non-toxic; increase of brain AUC, transgenic versus WT [2, 8]: ~ 4 fold; AUC for accumulation into the brain [2, 8]: 2.3 nmol·h/g wet weight; AUC for accumulation into the brain ([4]; 1 to 20 h post injection): 0.6 nmol·h/g wet weight
